The subject of test [1] is Lewis lung carcinoma (LLC) tumours. As to the kind of experiment: Lewis lung carcinoma tumour growth in mice. The conditions noted are these: Example 18; 28 g Fe-Lf per 2.4 Kg diet; epirubucin 15 mg/Kg i.p. It counts as in vivo, C57BL/6 mice. The method, then:
Tumors were established by s.c. injection of 2×10^5 EL-4 cells into the left flank of mice, and growth determined by measuring two perpendicular diameters. Animals were euthanased when tumors reached more than 1.0 cm in diameter, in accord with Animal Ethics Approval (University of Auckland). All experiments included 5 mice per treatment group, unless otherwise indicated. Paclitaxel (30 mg dissolved in 5 ml of Cremophor® EL and dehydrated alcohol) was diluted in 0.9% NaCl and administered i.p. at 30 mg/Kg. Doxorubucin in water was injected i.p. at 15 mg/Kg. The drugs were injected in a volume of 0.01 to 0.02 ml/g body weight. The expression vector encoding mouse B7-1 was prepared by cesium chloride gradient centrifugation, and diluted to 5 μg/μl in a solution of 5% glucose in 0.01% Triton X-100. It was mixed in a ratio of 1:1 (wt:wt) with DOTAP cationic liposomes (Boehringer Mannheim, Germany). Tumors were injected with 180 μl of DNA (180 μg)/liposome complexes, as described previously (Kanwar, et al., 1999 and Kanwar, et al., 2000).
Mice were fed the control diet, and the same diet supplemented with 28 g of 100% Fe-saturated lactoferrin per 2.4 Kg of diet. EL-4 (2×10^5), Lewis lung carcinoma (LLC, 2×10^5), and B16 melanoma (2×10^5) tumour cells were injected into the left flanks of C57BL/6 mice following two weeks on the Lf diets, or control diet. […]

The next test deals with EL-4 target cells. As to the kind of experiment: Anti-tumour CTL and/or NK cell cytolytic activity of splenocytes against EL-4 target cells. The conditions noted are these: Example 18; mice fed control diet.
The next test deals with EL-4 tumours. As to the kind of experiment: EL-4 tumour growth in mice (s.c. flank tumour model). It counts as in vivo, C57BL/6 mice. The conditions noted are these: for EL-4 tumour response: Example 18, 28 g Fe-Lf per 2.4 Kg diet, drugs i.p. at ~0.4 to 0.5 cm.
A further test relates to IL-18. Briefly: IL-18 production by cultured intestinal loops. It counts as cell-based, mice. The settings on record: Example 20; 400 and 800 μg/ml; 48 h. The method, then: Cytokine levels in the supernatants of homogenates of the small intestine were determined using a “sandwich” ELISA kit (Endogen, Woburn, Mass.). They were detected within standard curve ranges of 15-375 pg/ml for IL-4, 0-2450 pg/ml for IL-5, 15-1000 pg/ml for TNF-α, 0-3000 pg/ml for IFN-γ, 37-3000 pg/ml for IL-10, 31.3-2000 pg/ml for IL-12, and 31.3-2000 pg/ml for IL-18, respectively. Quantification of nitrite, indicative of NO production, was carried out by the Griess reaction (Sigma, USA). The results are expressed as the mean nitrite concentration (μM)±SD.
100% Fe-saturated Lf, natural Lf (less than 20% iron saturated), and bovine serum albumin control were added at 400 and 800 μg/ml to intestinal loops (2.5 cm segments of the small intestine) prepared from healthy 6 to 7 week-old female mice, which were kept in culture for 48 h. IL-18 levels released by the intestinal loops, and present in the supernatants of homogenates of the small intestine were determined using a “sandwich” ELISA kit as described above.

Protocol for EL-4 target cells: Splenocytes were harvested 28 days following tumour cell injection, as specified. They were incubated at 37° C. with EL-4 target cells in graded E:T ratios in 96-well round-bottom plates. After a 4-hour incubation, 50 μl of supernatant was collected, and lysis was measured using the Cyto Tox 96 Assay Kit (Promega, Madison, Wis., USA). Background controls for non-specific target and effector cell lysis were included. After background subtraction, percentage of cell lysis was calculated using the formula: 100× (experimental-spontaneous effector-spontaneous target/maximum target-spontaneous target).

With `COc1cccc2c1C(=O)c1c(O)c3c(c(O)c1C2=O)C[C@@](O)(C(=O)CO)C[C@@H]3O[C@H]1C[C@H](N)[C@@H](O)[C@H](C)O1` [Epirubucin, reference compound], the LLC tumour response result in test [1] is given as “slight delay in the growth”. Besides, the “effect of drug alone on anti-tumour cytolytic activity” value (“effect of drug alone” for short) in the test with EL-4 target cells was “negligible effect”. Besides, in the test on EL-4 tumours, the EL-4 tumour response result is given as “slight delay in the growth”.
`O=P1(N(CCCl)CCCl)NCCCO1` (stereo not drawn) [cyclophosphamide, reference compound]: the “effect of drug alone” value in the test on EL-4 target cells is “small increases”. For the same compound, the EL-4 tumour response result with EL-4 tumours is “little effect”.
Turning to `COc1cccc2c1C(=O)c1c(O)c3c(c(O)c1C2=O)C[C@@](O)(C(=O)CO)C[C@@H]3O[C@H]1C[C@H](N)[C@H](O)[C@H](C)O1` [doxorubicin, reference compound], in the test on EL-4 tumours (Example 6, doxorubicin 15 mg/Kg and/or paclitaxel 30 mg/Kg single dose i.p. at ~0.55 cm), the tumour response result is “regressed to half their size within one week of administration of doxorubicin, but then began to grow again”.
Turning to `O=c1[nH]cc(F)c(=O)[nH]1` [fluorouracil, reference compound], in the test on EL-4 target cells, the “effect of drug alone” value is “only slightly enhanced”.
As to `CN(Cc1cnc2nc(N)nc(N)c2n1)c1ccc(C(=O)N[C@@H](CCC(=O)O)C(=O)O)cc1` [methotrexate, reference compound], the “effect of drug alone” value in the test on EL-4 target cells was “small increases”. Besides, in the test with EL-4 tumours, the EL-4 tumour response result is on record as “no discernible effect”.
`CC(=O)O[C@H]1C(=O)[C@@]2(C)[C@H]([C@H](OC(=O)c3ccccc3)[C@]3(O)C[C@H](OC(=O)[C@H](O)[C@@H](NC(=O)c4ccccc4)c4ccccc4)C(C)=C1C3(C)C)[C@]1(OC(C)=O)CO[C@@H]1C[C@@H]2O` [paclitaxel, reference compound]: in the test on EL-4 tumours (Example 5, paclitaxel 30 mg/Kg i.p. at 0.5 cm tumour diameter), the tumour response result is given as “grew completely unchecked”. In addition, the “tumour response to paclitaxel” value in the test on EL-4 tumours (Example 15, paclitaxel 30 mg/Kg i.p. at ~0.6 cm, 20 g Lf per 2.4 Kg diet) is “completely resistant”.
As to “bovine serum albumin: control protein in intestinal loop test [reference compound]”, in the test on IL-18, the “effect on the levels of IL-18 already detectable in the intestine” value is on record as “negligible effect”.

These data come from patent US20090202574A1, “METHODS OF IMMUNE OR HAEMATOLOGICAL ENHANCEMENT, INHIBITING TUMOUR FORMATION OR GROWTH, AND TREATING OR PREVENTING CANCER” (priority 2004, published 2009).
